Legend:
[1] = system: SAM in HCT116 human colon carcinoma cell line engineered to delete the MTAP gene (MTAP −/−); experiment: Cellular assay of target engagement (SAM) by LC-MS/MS; type: cell-based; conditions: Homo sapiens, HCT-116, 72 h, IC50 score, read-out: Cell 72 h SAM Inhibition (MTAP −/−; Example 276)
Description: Measurement of MAT2A activity in cells was made by direct quantitation of the abundance of the product of its enzymatic activity, SAM. Cancer cells were treated with candidate MAT2A inhibitors for a suitable incubation period, and the cells were then lysed using a reagent which quenched any further enzyme activity. Soluble metabolites including SAM were collected and SAM itself was directly measured from the lysate using quantitative LC-MS/MS.
A typical assay was performed using an HCT116 human colon carcinoma cell line which was genetically engineered to delete the MTAP gene (commercially available from Horizon Discovery). This cell line was utilized because it was determined that loss of the MTAP gene predicts sensitivity to MAT2A inhibitors. Cells were plated in 96-well dishes at appropriate cell density. Following 24 hours, cells were then treated with the candidate MAT2A inhibitor. Prior to addition to cells, the compound was first serially diluted in 100% DMSO, typically as a 3-fold serial dilution starting at 500× top dose with 10 dose points including DMSO only control. Compound was then transferred to a working stock plate in cell culture media by adding 5 μl of compound in DMSO to 495 μl of cell culture media. This working stock was then added to cells via a further 5-fold dilution, by adding 25 μl of working stock to 100 μl of cells in culture media. Following compound addition, cells were incubated at 37° C./5% CO2 for 72 hrs.
To quantitate SAM levels following compound treatment, cells were gently washed once in Ammonium Carbonate buffer (75 mM at pH 7.4), placed on dry ice, and lysed with metabolite extraction buffer (80% cold methanol and 20% water (v/v) with acetic acid at 1 M final concentration with 200 ng/mL deuterated d3-SAM as internal control). Following centrifugation at 4° C. at 3,200 rpm for 30 minutes, the supernatant was collected and stored at −80° C. until analysis by Liquid Chromatography with tandem Mass Spectrometry (LC-MS/MS). LC-MS/MS analysis was performed using an API6500 Mass Spectrometer (Sciex, Framingham, Mass., USA) operating in positive ion spray mode and equipped with a Waters UPLC Acquity (Waters, Milford, Mass., USA) BEH Amide column. Multiple Reaction Monitoring data was acquired for SAM and the d3-SAM standard, using a mass transition pair at m/z 399.2→250.1 and 402.2→250.1, respectively. In a typical LC-MS/MS analysis, the initial flow rate was 0.5 ml/min of 25% mobile phase A (acetonitrile and water at 5:95 (v/v) with 1% formic acid and 10 mM ammonium acetate) and 75% mobile phase B (acetonitrile and water at 95:5 (v/v) with 1% formic acid and 10 mM ammonium acetate), 0.2-0.5 minutes with 75%-35% mobile phase B, 25%-65% mobile phase A, at 0.5 min 65% mobile phase A and 35% mobile phase B, 1.0-1.1 minutes with 35%-75% mobile phase B, 65%-25% mobile phase A, at 1.1 min 25% mobile phase A and 75% mobile phase B with a total run time of 1.5 minutes.

HCT116 MTAP−/− = experiment: Inhibition of cellular proliferation (Cell Titer Glo), HCT116 MTAP−/−; type: cell-based, human; conditions: Homo sapiens, HCT-116, 96 h, 4 days, IC50 score, read-out: 4 Day Relative Growth Inhibition (MTAP −/−; Example 277)
Description: (§1) Test compound impact on cancer cell growth was assessed by treating cancer cells with compound for 4 days and then measuring proliferation using an ATP-based cell proliferation readout (Cell Titer Glo, Promega Corporation).
(§2) In a typical assay an isogenic pair of HCT116 human colon carcinoma cell lines which vary only in MTAP deletion status (HCT116 MTAP+/+ and HCT116 MTAP−/−) were plated in 96-well dishes at appropriate cell density. Following 24 hours, cells were then treated with the candidate MAT2A inhibitor. Prior to addition to cells, the compound was first serially diluted in 100% DMSO, typically as a 3-fold serial dilution starting at 500× top dose with 10 dose points including DMSO only control. Compound was then transferred to a working stock plate in cell culture media by adding 5 μl of compound in DMSO to 495 μl of cell culture media. This working stock was then added to cells via a further 5-fold dilution, by adding 25 μl of working stock to 100 μl of cells in culture media. Following compound addition, cells were incubated at 37° C./5% C02 for 4 days.
(§3) To measure inhibition of cellular proliferation, cells were allowed to equilibrate to room temperature for 30 minutes, and were then treated with 125 μl of Cell Titer Glo reagent. The plate was then covered with aluminum foil and shaken for 15 minutes to ensure complete mixing and full cell lysis. Luminescent signal was then measured using a plate-based luminometer Veritas version 1.9.2 using ATP standard curve to confirm assay reproducibility from run to run. This luminescence measure was converted to a proliferation index by subtracting from each data point the ATP luminescence signal measured from a bank (no cells) well and dividing by the ATP luminescence signal measured in 0.2% DMSO control well adjusted for signal in blank well. Compound activity was then represented as a percentage change in proliferation relative to a within-plate DMSO control against log10 of compound concentration in molar (M) units.

MAT2A homodimer = molecular target: T1, MAT2A homodimer (Homo sapiens, UniProt P31153); experiment: Biochemical assay: inhibition of MAT2A (phosphate release, PiColorLock Gold); conditions: MAT2A IC50 score; read-out: Enzyme Inhibition (Example 275)
T1 construct: inferred from Ni sepharose purification and imidazole elution; made in house; host or cells: Sf9 insect cells, recombinant baculovirus (Bac to Bac, pFASTBAC1)
T1 sequence (P31153 whole entry): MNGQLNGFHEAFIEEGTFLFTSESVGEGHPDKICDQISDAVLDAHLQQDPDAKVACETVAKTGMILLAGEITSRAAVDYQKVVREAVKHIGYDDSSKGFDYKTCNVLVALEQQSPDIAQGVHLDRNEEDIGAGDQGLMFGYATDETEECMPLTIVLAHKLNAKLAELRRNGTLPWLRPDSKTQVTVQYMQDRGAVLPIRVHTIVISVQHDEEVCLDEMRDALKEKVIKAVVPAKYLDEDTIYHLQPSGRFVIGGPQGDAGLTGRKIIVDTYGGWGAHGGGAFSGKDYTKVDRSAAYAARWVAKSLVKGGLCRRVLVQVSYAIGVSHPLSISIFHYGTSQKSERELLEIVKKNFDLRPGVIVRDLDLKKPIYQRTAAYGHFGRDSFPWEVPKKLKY
Summary of the method: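 Phosphate formed alongside SAM was read with PiColorLock Gold and quantified against a potassium phosphate standard curve. Reactions ran 60 min at 25 °C after adding a substrate mix of 500 μM ATP and 400 μM L-methionine (mix concentrations). Compound had first been preincubated 60 min with recombinant Sf9-derived MAT2A homodimer ([…]) in pH 8.0 Tris buffer containing MgCl2, KCl, EDTA and BSA.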

HCT116 MTAP+/+ = experiment: Inhibition of cellular proliferation (Cell Titer Glo), HCT116 MTAP+/+; type: cell-based, human; conditions: Homo sapiens, HCT-116, 96 h, 4 days, IC50 score, read-out: 4 Day Relative Growth Inhibition (MTAP +/+; Example 277)
Description: as §1, §2, §3

SMILES	IC50 [1]	IC50 (HCT116 MTAP−/−)	IC50 (MAT2A homodimer)	IC50 (HCT116 MTAP+/+)
Cn1cnc2ccc(-n3cc4ccc(OCC(F)(F)F)nc4c(-c4ccc(OC(F)F)nc4)c3=O)cc21 [Example 127-A]	100 to 1000 nM	< 100 nM	< 100 nM	100 to 10000 nM
Cn1cnc2ccc(-n3cc4ccc(OCC(F)(F)F)nc4c(-c4ccc(C(F)(F)F)nc4)c3=O)cc21 [Example 128-A]	< 100 nM	< 100 nM	< 100 nM	100 to 10000 nM
O=c1c(-c2ccc(Cl)cc2)c2nc(NCC(F)(F)F)ncc2cn1-c1ccc2ncsc2c1 [Example 129, 6-(benzo[d]thiazol-6-yl)-8-(4-chlorophenyl)-2-(2,2,2-trifluoroethylamino)pyrido[4,3-d]pyrimidin-7(6H)-one]	100 to 1000 nM	100 to 10000 nM	< 100 nM	> 10000 nM
CCOc1ccc2cn(-c3ccc(OC)cc3)c(=O)c(-c3ccc(OC(F)F)nc3)c2n1 [Example 129-A]	< 100 nM	100 to 10000 nM	< 100 nM	100 to 10000 nM
Cc1ccc(-c2c(=O)n(-c3ccc4nn(C)cc4c3)cc3ccc(OCC(F)(F)F)nc23)cn1 [Example 130-A]	< 100 nM	< 100 nM	< 100 nM	100 to 10000 nM
Cn1cc2cc(-n3cc4ccc(OCC(F)(F)F)nc4c(-c4ccc(OC(F)(F)F)nc4)c3=O)ccc2n1 [Example 131-A]	< 100 nM	100 to 10000 nM	< 100 nM	100 to 10000 nM
Cc1c2cc(-n3cc4cnc(NCC(F)(F)F)nc4c(-c4ccc(Cl)cc4)c3=O)ccc2nn1C [Example 132, 8-(4-chlorophenyl)-6-(2,3-dimethyl-2H-indazol-5-yl)-2-(2,2,2-trifluoroethylamino)pyrido[4,3-d]pyrimidin-7(6)-one]	< 100 nM	< 100 nM	< 100 nM	> 10000 nM
CCOc1ccc2cn(-c3ccc4ncn(C)c4c3)c(=O)c(-c3ccc(C)nc3)c2n1 [Example 132-A]	< 100 nM	< 100 nM	< 100 nM	100 to 10000 nM
O=c1c(-c2ccc(Cl)cc2)c2nc(NCC(F)(F)F)ncc2cn1-c1ccc2c(c1)CCO2 [Example 133, 8-(4-chlorophenyl)-6-(2,3-dihydrobenzofuran-5-yl)-2-(2,2,2-trifluoroethylamino)pyrido[4,3-d]pyrimidin-7(6H)-one]	< 100 nM	< 100 nM	< 100 nM	> 10000 nM
CCOc1nc2c(-c3ccc(Cl)cc3)c(=O)n(-c3ccc4nn(C)cc4c3)cc2cc1C [Example 134-A]	< 100 nM	< 100 nM	< 100 nM	> 10000 nM
Cn1cnc2ccc(-n3cc4cnc(NCC(F)(F)F)nc4c(-c4ccc(Cl)cc4)c3=O)cc21 [Example 135, 8-(4-chlorophenyl)-6-(1-methyl-1H-benzo[d]imidazol-6-yl)-2-(2,2,2-trifluoroethylamino)pyrido[4,3-d]pyrimidin-7(6H)-one]	< 100 nM	< 100 nM	< 100 nM	100 to 10000 nM
CN(C)CCn1cc2cc(-n3cc4cnc(NCC(F)(F)F)nc4c(-c4ccc(Cl)cc4)c3=O)ccc2n1 [Example 137, 8-(4-chlorophenyl)-6-(2-(2-(dimethylamino)ethyl)-2H-indazol-5-yl)-2-((2,2,2-trifluoroethyl)amino)pyrido[4,3-d]pyrimidin-7(6H)-one]	100 to 1000 nM	100 to 10000 nM	< 100 nM	> 10000 nM
CCOc1ccc2cn(-c3ccc4nn(C)cc4c3)c(=O)c(-c3ccc(CF)nc3)c2n1 [Example 137-A, 2-ethoxy-8-(6-(fluoromethyl)pyridin-3-yl)-6-(2-methyl-2H-indazol-5-yl)-1,6-naphthyridin-7(6H)-one]	< 100 nM	< 100 nM	< 100 nM	100 to 10000 nM

Now from value to compound:

IC50 [1]	IC50 (HCT116 MTAP−/−)	IC50 (MAT2A homodimer)	IC50 (HCT116 MTAP+/+)	SMILES
< 100 nM	< 100 nM	< 100 nM	100 to 10000 nM	Cn1cc2cc(-n3cc4cnc(NCC(F)(F)F)nc4c(-c4ccc(Cl)cc4)c3=O)ccc2n1 [Example 123, 8-(4-chlorophenyl)-6-(2-methyl-2H-indazol-5-yl)-2-((2,2,2-trifluoroethyl)amino)pyrido[4,3-d]pyrimidin-7(6H)-one]
< 100 nM	< 100 nM	< 100 nM	100 to 10000 nM	Cn1cc2cc(-n3cc4ccc(OCC(F)F)nc4c(-c4ccc(OC(F)F)nc4)c3=O)ccc2n1 [Example 123-A]
< 100 nM	< 100 nM	< 100 nM	> 10000 nM	Cc1nc2ccc(-n3cc4cnc(NCC(F)(F)F)nc4c(-c4ccc(Cl)cc4)c3=O)cc2n1C [Example 124, 8-(4-chlorophenyl)-6-(1,2-dimethyl-1H-benzo[d]imidazol-6-yl)-2-((2,2,2-trifluoroethyl)amino)pyrido[4,3-d]pyrimidin-7(6H)-one]
< 100 nM	100 to 10000 nM	< 100 nM	100 to 10000 nM	Cn1cc2cc(-n3cc4ccc(OCC(F)(F)F)nc4c(-c4ccc(C(F)(F)F)nc4)c3=O)ccc2n1 [Example 124-A]
< 100 nM	< 100 nM	< 100 nM	100 to 10000 nM	Cn1cc2cc(-n3cc4ccc(OCC(F)F)nc4c(-c4ccc(OC(F)(F)F)nc4)c3=O)ccc2n1 [Example 125-A]
< 100 nM	< 100 nM	< 100 nM	100 to 10000 nM	Cn1cc2cc(-n3cc4ccc(OCC(F)F)nc4c(-c4ccc(OC(F)F)cc4)c3=O)ccc2n1 [Example 126-A]
< 100 nM	< 100 nM	< 100 nM	> 10000 nM	O=c1c(-c2ccc(Cl)cc2)c2nc(NCC(F)(F)F)ncc2cn1-c1ccc2ncn(C3CC3)c2c1 [Example 127, 8-(4-chlorophenyl)-6-(1-cyclopropyl-1H-benzo[d]imidazol-6-yl)-2-(2,2,2-trifluoroethylamino)pyrido[4,3-d]pyrimidin-7(6H)-one]

Reference: patent US11524960B2, “Heterobicyclic inhibitors of MAT2A and methods of use for treating cancer” (AGIOS PHARMACEUTICALS, INC., priority 2018, dated 2022)
